# Legend:
# rat MAO = details: cited from earlier work
# [1] = target: T1, recombinant human MAO-A (hMAO-A) (Homo sapiens, UniProt P21397); assay: MAO-Glow luminescence assay, hMAO-A inhibition; format: biochemical; details: up to 250 μM tested
# T1 construct: purchased Sigma-Aldrich
# T1 sequence (P21397 1-527): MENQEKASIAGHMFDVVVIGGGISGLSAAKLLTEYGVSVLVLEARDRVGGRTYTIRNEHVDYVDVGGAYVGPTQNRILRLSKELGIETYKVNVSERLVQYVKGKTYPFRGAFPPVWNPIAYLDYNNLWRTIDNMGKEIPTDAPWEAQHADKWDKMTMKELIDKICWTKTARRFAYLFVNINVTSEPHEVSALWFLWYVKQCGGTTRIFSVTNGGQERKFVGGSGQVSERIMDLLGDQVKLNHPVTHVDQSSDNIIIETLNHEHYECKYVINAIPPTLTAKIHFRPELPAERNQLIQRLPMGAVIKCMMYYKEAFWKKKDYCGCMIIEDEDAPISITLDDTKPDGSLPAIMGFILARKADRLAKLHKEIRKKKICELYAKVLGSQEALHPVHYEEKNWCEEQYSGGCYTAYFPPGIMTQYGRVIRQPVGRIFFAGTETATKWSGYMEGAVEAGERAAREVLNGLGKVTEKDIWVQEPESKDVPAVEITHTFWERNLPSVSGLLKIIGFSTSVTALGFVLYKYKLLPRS
# Procedure: (§1) All analyses were performed by GraphPad Prism Software 6.02 (San Diego, CA, USA). IC50 values were determined by nonlinear regression best-fit model of normalized response with variable slope. The inhibitor constant (K i) values were obtained from the competitive inhibition model. Lineweaver-Burk plot was obtained from Michaelis-Menten data. Relative selectivity (RS) folds were defined by the ratio of hMAO-A IC50 to hMAO-B IC50. The significance of the difference between two groups was determined using an unpaired t-test, between the control and treatments using one-way ANOVA followed by Dunnett's multiple comparisons tests and between two sets of data using two-way ANOVA followed by Sidak's multiple comparisons test.
# [2] = target: T2, recombinant human MAO-B (hMAO-B) (Homo sapiens, UniProt P27338); assay: MAO-Glow luminescence assay, hMAO-B inhibition; format: biochemical
# T2 construct: purchased Sigma-Aldrich
# T2 sequence (P27338 1-520): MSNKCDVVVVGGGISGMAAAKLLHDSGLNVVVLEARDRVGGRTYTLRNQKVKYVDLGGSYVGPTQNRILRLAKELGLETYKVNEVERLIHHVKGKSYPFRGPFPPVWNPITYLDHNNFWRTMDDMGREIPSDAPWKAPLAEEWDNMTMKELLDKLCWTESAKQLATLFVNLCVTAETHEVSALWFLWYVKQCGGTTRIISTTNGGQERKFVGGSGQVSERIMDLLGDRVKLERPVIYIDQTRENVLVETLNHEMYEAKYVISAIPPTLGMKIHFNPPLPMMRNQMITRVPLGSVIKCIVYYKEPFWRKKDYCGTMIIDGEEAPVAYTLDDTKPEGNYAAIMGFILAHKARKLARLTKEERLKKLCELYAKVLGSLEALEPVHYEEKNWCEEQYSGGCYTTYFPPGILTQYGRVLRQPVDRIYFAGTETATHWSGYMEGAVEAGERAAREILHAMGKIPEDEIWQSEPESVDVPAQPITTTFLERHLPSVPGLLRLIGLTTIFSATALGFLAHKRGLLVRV
# Procedure: as §1, with “IC50” for “All analyses were performed by GraphPad Prism Software 6.02 (San Diego, CA, USA). IC50”
# [3] = oral 54 mg/day, postmenopausal women; cited from earlier work
# hMAO-B [4] = target: T3, hMAO-B (Homo sapiens, UniProt P27338); assay: Recovery by dilution assay, hMAO-B; format: biochemical
# T3 construct: purchased Sigma-Aldrich
# T3 sequence (P27338 1-520): T2 sequence (P27338 1-520)
# Procedure: (§2) The microplates were then incubated for 30, 40, 50, and 60 min. RLDR was added, and luminescence was measured as mentioned above.
# hMAO-B [5] = target: T3, hMAO-B; assay: Michaelis-Menten kinetics (mode of inhibition), hMAO-B; format: biochemical
# Procedure: (§3) After 1.5 h of incubation, RLDR was added, and the luminescence signal was detected as mentioned in the hMAO-A and hMAO-B assay.
# as §1, with “IC50” for “All analyses were performed by GraphPad Prism Software 6.02 (San Diego, CA, USA). IC50”
# hMAO-A [6] = target: T4, hMAO-A (Homo sapiens, UniProt P21397); assay: Michaelis-Menten kinetics (mode of inhibition), hMAO-A; format: biochemical
# T4 construct: purchased Sigma-Aldrich
# T4 sequence (P21397 1-527): T1 sequence (P21397 1-527)
# Procedure: as §3, §1
# bovine plasma MAO = tested on: bovine plasma MAO; parameters: method as in PMID 1913999; details: cited from earlier work
# hMAO-A [7] = target: T4, hMAO-A; assay: Recovery by dilution assay, hMAO-A; format: biochemical
# Procedure: as §2
# [8] = 40 min preincubation at 10x IC50, 100-fold dilution, vs negative control
# [9] = 40 min preincubation at 100x IC50, 100-fold dilution, vs negative control
# [10] = up to 60 min at RT, maximum 100x IC50
hMAO-A inhibitory effect [1],hMAO-B inhibitory effect ([2]; up to 250 μM tested),hMAO-B residual catalytic rate after dilution to 0.1x IC50 (hMAO-B [4]; [8]) [%],hMAO-B residual catalytic rate after dilution to 1x IC50 (hMAO-B [4]; [9]) [%],Reversibility of hMAO-B inhibition (hMAO-B [4]; [10]),"Change in Vmax, hMAO-B (hMAO-B [5]; GST 5, 10, 20 μM, p = 0.44)","Mode of hMAO-B inhibition (hMAO-B [5]; Lineweaver-Burk, LDS substrate)",hMAO-B Ki lower than hMAO-A Ki (hMAO-B [5]; ratio of Ki values) [fold],"Change in Vmax, hMAO-A (hMAO-A [6]; GST 5, 10, 20 μM, p = 0.10)","Mode of hMAO-A inhibition (hMAO-A [6]; Lineweaver-Burk, LDS substrate)",hMAO-B potency as % of DEP potency ([2]; from IC50 values) [%],hMAO-A residual catalytic rate after dilution to 0.1x IC50 (hMAO-A [7]; [8]) [%],hMAO-A residual catalytic rate after dilution to 1x IC50 (hMAO-A [7]; [9]) [%],Reversibility of hMAO-A inhibition (hMAO-A [7]; [10]),SMILES,Rat MAO inhibition (rat MAO),Steady-state level [3],Bovine plasma MAO inhibition (bovine plasma MAO)
minor or partial inhibitory effect,minor or partial inhibitory effect,,,,,,,,,,,,,"O=c1c(-c2ccc(O)cc2)coc2cc(O)ccc12 [DZ, Daidzein]",no significant rat MAO inhibition,,
,,86.1,47.1,reversible inhibitor,no significant change,competitive,3.0,no significant change,competitive,1.4,86.8,42.3,reversible inhibitor,"O=c1c(-c2ccc(O)cc2)coc2cc(O)cc(O)c12 [GST, Genistein]",,up to 1.00 μM,weak bovine plasma MAO inhibition

# Source: paper PMC4826920 (Evidence-based Complementary and Alternative Medicine : eCAM, 2016)
